Measurements reported in PubChem BioAssay AID1845210 (Molecular Pharmacology Branch, DTP, NCI, 2023).

System: NCI-H226 complex tumor spheroids, viability
Test: Anticancer human tumor NCI-H226 cell line growth inhibition;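 also: spheroids exposed to compound for 7 days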;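 as to viability, T/C: 100% = DMSO vehicle control viability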
Details: for IC50: curve of first compound; for viability, T/C: stronger effect = lower value
In short: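 Complex spheroids of malignant cells with endothelial cells and mesenchymal stem cells; agents alone or combined, from near clinical Cmax (or 10 microM if unknown) down in half-log steps, 0.25% DMSO final.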

[1] = second compound 0.003 µM, first compound 0.0316 µM
[2] = second compound 0.003 µM, first compound 0.1 µM
[3] = second compound 0.003 µM, first compound 0.316 µM
[4] = second compound 0.003 µM, first compound 1 µM
[5] = second compound 0.003 µM, first compound 3.16 µM
[6] = second compound 0.003 µM, first compound 10 µM
[7] = second compound 0.00949 µM, first compound 0.0316 µM
[8] = second compound 0.00949 µM, first compound 0.1 µM
[9] = second compound 0.00949 µM, first compound 0.316 µM
[10] = second compound 0.00949 µM, first compound 1 µM
[11] = second compound 0.00949 µM, first compound 3.16 µM
[12] = second compound 0.00949 µM, first compound 10 µM
[13] = second compound 0.03 µM, first compound 0.0316 µM
[14] = second compound 0.03 µM, first compound 0.1 µM
[15] = second compound 0.03 µM, first compound 0.316 µM
[16] = second compound 0.03 µM, first compound 1 µM
[17] = second compound 0.03 µM, first compound 3.16 µM
[18] = second compound 0.03 µM, first compound 10 µM
[19] = second compound 0.0949 µM, first compound 0.0316 µM
[20] = second compound 0.0949 µM, first compound 0.1 µM
[21] = second compound 0.0949 µM, first compound 0.316 µM
[22] = second compound 0.0949 µM, first compound 1 µM
[23] = second compound 0.0949 µM, first compound 3.16 µM
[24] = second compound 0.0949 µM, first compound 10 µM
[25] = second compound 0.3 µM, first compound 0.0316 µM
[26] = second compound 0.3 µM, first compound 0.1 µM
[27] = second compound 0.3 µM, first compound 0.316 µM
[28] = second compound 0.3 µM, first compound 1 µM
[29] = second compound 0.3 µM, first compound 3.16 µM
[30] = second compound 0.3 µM, first compound 10 µM

SMILES	IC50 (second compound 0.003 µM) [µM]	IC50 (second compound 0.00949 µM) [µM]	IC50 (second compound 0.03 µM) [µM]	IC50 (second compound 0.0949 µM) [µM]	IC50 (second compound 0.3 µM) [µM]	viability, T/C [1] [%]	viability, T/C [2] [%]	viability, T/C [3] [%]	viability, T/C [4] [%]	viability, T/C [5] [%]	viability, T/C [6] [%]	viability, T/C [7] [%]	viability, T/C [8] [%]	viability, T/C [9] [%]	viability, T/C [10] [%]	viability, T/C [11] [%]	viability, T/C [12] [%]	viability, T/C [13] [%]	viability, T/C [14] [%]	viability, T/C [15] [%]	other results
CC(C)n1c(=O)n(C)c2cnc3cc(F)c(-c4ccc(OCCCN5CCCCC5)nc4)cc3c21 + CC[C@@]1(O)C(=O)OCc2c1cc1n(c2=O)Cc2cc3c(CN(C)C)c(O)ccc3nc2-1	6.02	5.72	5.24	4.41	5.01	99.8	92.3	94.5	93.9	82.3	24.5	86.4	86.5	86.5	86.3	84	17.9	81.4	78.3	83.2	viability, T/C [16]: 75.4%; viability, T/C [17]: 73.2%; viability, T/C [18]: 21%; viability, T/C [19]: 87.4%; viability, T/C [20]: 85.3%; viability, T/C [21]: 75.7%; viability, T/C [22]: 77.9%; viability, T/C [23]: 61.5%; viability, T/C [24]: 22.8%; viability, T/C [25]: 92.2%; viability, T/C [26]: 84.3%; viability, T/C [27]: 73.4%; viability, T/C [28]: 84.1%; viability, T/C [29]: 71.8%; viability, T/C [30]: 17%
CC1COCCN1c1cc(-c2ccnn2C)c2ccnc(-c3ccn[nH]3)c2n1 (stereo not given) + CC[C@@]1(O)C(=O)OCc2c1cc1n(c2=O)Cc2cc3c(CN(C)C)c(O)ccc3nc2-1	1.04	1.09	0.823	0.814	0.518	97.2	81.5	74	47.6	39.2	36.1	93.8	85.1	69.3	52.5	36.1	33.4	83.1	76.3	63.6	viability, T/C [16]: 48.1%; viability, T/C [17]: 36.8%; viability, T/C [18]: 37.9%; viability, T/C [19]: 82.2%; viability, T/C [20]: 71.3%; viability, T/C [21]: 65.1%; viability, T/C [22]: 46.1%; viability, T/C [23]: 37.4%; viability, T/C [24]: 34.9%; viability, T/C [25]: 71.2%; viability, T/C [26]: 66.9%; viability, T/C [27]: 56.8%; viability, T/C [28]: 41.4%; viability, T/C [29]: 36.3%; viability, T/C [30]: 38.1%
COc1cc(C)[nH]c(=O)c1CN1CCc2c(Cl)cc(C(OC)C3COC3)c(Cl)c2C1=O (stereo not given) + CC[C@@]1(O)C(=O)OCc2c1cc1n(c2=O)Cc2cc3c(CN(C)C)c(O)ccc3nc2-1	> 10	> 10	> 10	> 10	> 10	93.7	123	110	122	112	98.5	88.6	102	100	95.8	99.2	97.3	86.4	87	80.6	viability, T/C [16]: 92.7%; viability, T/C [17]: 92.6%; viability, T/C [18]: 87.4%; viability, T/C [19]: 97.3%; viability, T/C [20]: 93.1%; viability, T/C [21]: 86.4%; viability, T/C [22]: 92.9%; viability, T/C [23]: 88.3%; viability, T/C [24]: 81.6%; viability, T/C [25]: 71.4%; viability, T/C [26]: 73.3%; viability, T/C [27]: 72%; viability, T/C [28]: 75.2%; viability, T/C [29]: 69.9%; viability, T/C [30]: 72.9%
COc1ccc([C@@H](O)c2cc(-c3ncnc4cc(N5CCOCC5)ccc34)c(F)cc2Cl)nn1 + CC[C@@]1(O)C(=O)OCc2c1cc1n(c2=O)Cc2cc3c(CN(C)C)c(O)ccc3nc2-1	4.24	2.92	1.88	2.48	1.52	98.2	96.3	88.3	71.1	56.7	34.7	87.8	98.7	90.6	74.5	48.9	35.2	79.6	81.7	75.6	viability, T/C [16]: 57.1%; viability, T/C [17]: 44.1%; viability, T/C [18]: 30.2%; viability, T/C [19]: 90.4%; viability, T/C [20]: 83.1%; viability, T/C [21]: 74.8%; viability, T/C [22]: 65.2%; viability, T/C [23]: 44.8%; viability, T/C [24]: 30.3%; viability, T/C [25]: 68.1%; viability, T/C [26]: 73.2%; viability, T/C [27]: 65.9%; viability, T/C [28]: 55.8%; viability, T/C [29]: 39.8%; viability, T/C [30]: 30.8%
[2H]c1nc(C)nc([2H])c1-c1cc(NC[C@@H](C)c2cccc3c(C(=O)NC)ccnc23)ncn1 + CC[C@@]1(O)C(=O)OCc2c1cc1n(c2=O)Cc2cc3c(CN(C)C)c(O)ccc3nc2-1	> 10	> 10	> 10	> 10	> 10	89.6	93.2	92.6	82	79.5	88.1	86.8	88.3	93	86.7	84.3	88.5	79	82	84.3	viability, T/C [16]: 79%; viability, T/C [17]: 81.5%; viability, T/C [18]: 73%; viability, T/C [19]: 88.8%; viability, T/C [20]: 89%; viability, T/C [21]: 85.1%; viability, T/C [22]: 83%; viability, T/C [23]: 80.5%; viability, T/C [24]: 86.5%; viability, T/C [25]: 59.8%; viability, T/C [26]: 70.4%; viability, T/C [27]: 65.5%; viability, T/C [28]: 71.9%; viability, T/C [29]: 59.5%; viability, T/C [30]: 60.7%
